{"source": "PubChem BioAssay (NCI)", "test_in_all_cases": "NCI tumour cell line growth inhibition, 48 h", "key": {"DMS 273 small cell lung": {"system": "DMS 273 small cell lung"}, "OVCAR-4 ovarian": {"system": "OVCAR-4 ovarian"}, "HCC-2998 colon": {"system": "HCC-2998 colon"}, "NCI-H226 lung": {"system": "NCI-H226 lung"}, "NCI-H522 lung": {"system": "NCI-H522 lung"}, "RXF 393 renal": {"system": "RXF 393 renal"}, "DLD-1 colon": {"system": "DLD-1 colon"}, "SK-MEL-28 melanoma": {"system": "SK-MEL-28 melanoma"}, "IGROV1 ovarian": {"system": "IGROV1 ovarian"}, "MALME-3M melanoma": {"system": "MALME-3M melanoma"}, "HCT-116 colon": {"system": "HCT-116 colon"}, "HCT-15 colon": {"system": "HCT-15 colon"}, "LOX IMVI melanoma": {"system": "LOX IMVI melanoma"}, "A549 NSCLC": {"system": "A549 NSCLC"}, "U251 CNS": {"system": "U251 CNS"}, "OVCAR-3 ovarian": {"system": "OVCAR-3 ovarian"}, "COLO 205 colon": {"system": "COLO 205 colon"}, "HOP-92 NSCLC": {"system": "HOP-92 NSCLC"}, "MCF7 breast": {"system": "MCF7 breast"}, "UO-31 renal": {"system": "UO-31 renal"}, "A498 renal": {"system": "A498 renal"}, "EKVX NSCLC": {"system": "EKVX NSCLC"}, "CCRF-CEM leukemia": {"system": "CCRF-CEM leukemia"}, "SF-295 CNS": {"system": "SF-295 CNS"}, "KM20L2 colon": {"system": "KM20L2 colon"}, "XF 498 CNS": {"system": "XF 498 CNS"}, "OVCAR-8 ovarian": {"system": "OVCAR-8 ovarian"}, "NCI/ADR-RES ovarian": {"system": "NCI/ADR-RES ovarian"}, "NCI-H460 lung": {"system": "NCI-H460 lung"}, "HOP-62 NSCLC": {"system": "HOP-62 NSCLC"}, "SW-620 colon": {"system": "SW-620 colon"}, "HT29 colon": {"system": "HT29 colon"}, "UACC-62 melanoma": {"system": "UACC-62 melanoma"}, "SK-MEL-2 melanoma": {"system": "SK-MEL-2 melanoma"}, "KM12 colon": {"system": "KM12 colon"}, "HL-60(TB) leukemia": {"system": "HL-60(TB) leukemia"}, "NCI-H23 lung": {"system": "NCI-H23 lung"}, "UACC-257 melanoma": {"system": "UACC-257 melanoma"}, "M19-MEL melanoma": {"system": "M19-MEL melanoma"}, "SN12C renal": {"system": "SN12C renal"}, "SF-539 CNS": {"system": "SF-539 CNS"}, "P388/ADR leukemia": {"system": "P388/ADR leukemia"}, "P388 leukemia": {"system": "P388 leukemia"}, "SNB-75 CNS": {"system": "SNB-75 CNS"}, "OVCAR-5 ovarian": {"system": "OVCAR-5 ovarian"}, "SN12K1 renal": {"system": "SN12K1 renal"}, "K-562 leukemia": {"system": "K-562 leukemia"}, "RPMI-8226 leukemia": {"system": "RPMI-8226 leukemia"}, "HOP-18 NSCLC": {"system": "HOP-18 NSCLC"}, "SNB-78 CNS": {"system": "SNB-78 CNS"}, "SF-268 CNS": {"system": "SF-268 CNS"}, "SK-MEL-5 melanoma": {"system": "SK-MEL-5 melanoma"}, "SNB-19 CNS": {"system": "SNB-19 CNS"}, "SK-OV-3 ovarian": {"system": "SK-OV-3 ovarian"}, "MOLT-4 leukemia": {"system": "MOLT-4 leukemia"}}, "note": "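Briefly, cells in 96-well plates were exposed to five compound concentrations for 48 h, and endpoints were estimated by linear interpolation. TGI: total growth inhibition.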", "data": [{"smiles": "C#CC[C@@]12CC(=O)C[C@@H]1CCC1(C2)OCCO1", "note": "(tested in a mixture with another compound)", "values": [{"measurement": "TGI", "setting": "DMS 273 small cell lung", "value": "> 100", "unit": "µM"}, {"measurement": "TGI", "setting": "OVCAR-4 ovarian", "value": "> 100", "unit": "µM"}, {"measurement": "TGI", "setting": "HCC-2998 colon", "value": "> 100", "unit": "µM"}, {"measurement": "TGI", "setting": "NCI-H226 lung", "value": "> 100", "unit": "µM"}, {"measurement": "TGI", "setting": "NCI-H522 lung", "value": "> 100", "unit": "µM"}, {"measurement": "TGI", "setting": "RXF 393 renal", "value": "> 100", "unit": "µM"}, {"measurement": "TGI", "setting": "DLD-1 colon", "value": "> 100", "unit": "µM"}, {"measurement": "TGI", "setting": "SK-MEL-28 melanoma", "value": "> 100", "unit": "µM"}, {"measurement": "TGI", "setting": "IGROV1 ovarian", "value": "> 100", "unit": "µM"}, {"measurement": "TGI", "setting": "MALME-3M melanoma", "value": "> 100", "unit": "µM"}, {"measurement": "TGI", "setting": "HCT-116 colon", "value": "> 100", "unit": "µM"}, {"measurement": "TGI", "setting": "HCT-15 colon", "value": "> 100", "unit": "µM"}, {"measurement": "TGI", "setting": "LOX IMVI melanoma", "value": "> 100", "unit": "µM"}, {"measurement": "TGI", "setting": "A549 NSCLC", "value": "> 100", "unit": "µM"}, {"measurement": "TGI", "setting": "U251 CNS", "value": "> 100", "unit": "µM"}, {"measurement": "TGI", "setting": "OVCAR-3 ovarian", "value": "> 100", "unit": "µM"}, {"measurement": "TGI", "setting": "COLO 205 colon", "value": "> 100", "unit": "µM"}, {"measurement": "TGI", "setting": "HOP-92 NSCLC", "value": "> 100", "unit": "µM"}, {"measurement": "TGI", "setting": "MCF7 breast", "value": "> 100", "unit": "µM"}, {"measurement": "TGI", "setting": "UO-31 renal", "value": "> 100", "unit": "µM"}, {"measurement": "TGI", "setting": "A498 renal", "value": "> 100", "unit": "µM"}, {"measurement": "TGI", "setting": "EKVX NSCLC", "value": "> 100", "unit": "µM"}, {"measurement": "TGI", "setting": "CCRF-CEM leukemia", "value": "> 100", "unit": "µM"}, {"measurement": "TGI", "setting": "SF-295 CNS", "value": "> 100", "unit": "µM"}, {"measurement": "TGI", "setting": "KM20L2 colon", "value": "> 100", "unit": "µM"}, {"measurement": "TGI", "setting": "XF 498 CNS", "value": "> 100", "unit": "µM"}, {"measurement": "TGI", "setting": "OVCAR-8 ovarian", "value": "> 100", "unit": "µM"}, {"measurement": "TGI", "setting": "NCI/ADR-RES ovarian", "value": "> 100", "unit": "µM"}, {"measurement": "TGI", "setting": "NCI-H460 lung", "value": "> 100", "unit": "µM"}, {"measurement": "TGI", "setting": "HOP-62 NSCLC", "value": "> 100", "unit": "µM"}, {"measurement": "TGI", "setting": "SW-620 colon", "value": "> 100", "unit": "µM"}, {"measurement": "TGI", "setting": "HT29 colon", "value": "> 100", "unit": "µM"}, {"measurement": "TGI", "setting": "UACC-62 melanoma", "value": "> 100", "unit": "µM"}, {"measurement": "TGI", "setting": "SK-MEL-2 melanoma", "value": "> 100", "unit": "µM"}, {"measurement": "TGI", "setting": "KM12 colon", "value": "> 100", "unit": "µM"}, {"measurement": "TGI", "setting": "HL-60(TB) leukemia", "value": "> 100", "unit": "µM"}, {"measurement": "TGI", "setting": "NCI-H23 lung", "value": "> 100", "unit": "µM"}, {"measurement": "TGI", "setting": "UACC-257 melanoma", "value": "> 100", "unit": "µM"}, {"measurement": "TGI", "setting": "M19-MEL melanoma", "value": "> 100", "unit": "µM"}, {"measurement": "TGI", "setting": "SN12C renal", "value": "> 100", "unit": "µM"}, {"measurement": "TGI", "setting": "SF-539 CNS", "value": "> 100", "unit": "µM"}, {"measurement": "TGI", "setting": "P388/ADR leukemia", "value": "> 75", "unit": "µM"}, {"measurement": "TGI", "setting": "P388 leukemia", "value": "> 59.7", "unit": "µM"}, {"measurement": "TGI", "setting": "SNB-75 CNS", "value": "> 100", "unit": "µM"}, {"measurement": "TGI", "setting": "OVCAR-5 ovarian", "value": "> 100", "unit": "µM"}, {"measurement": "TGI", "setting": "SN12K1 renal", "value": "> 100", "unit": "µM"}, {"measurement": "TGI", "setting": "K-562 leukemia", "value": "> 100", "unit": "µM"}, {"measurement": "TGI", "setting": "RPMI-8226 leukemia", "value": "> 100", "unit": "µM"}, {"measurement": "TGI", "setting": "HOP-18 NSCLC", "value": "> 100", "unit": "µM"}, {"measurement": "TGI", "setting": "SNB-78 CNS", "value": "> 100", "unit": "µM"}, {"measurement": "TGI", "setting": "SF-268 CNS", "value": "> 100", "unit": "µM"}, {"measurement": "TGI", "setting": "SK-MEL-5 melanoma", "value": "> 100", "unit": "µM"}, {"measurement": "TGI", "setting": "SNB-19 CNS", "value": "> 100", "unit": "µM"}, {"measurement": "TGI", "setting": "SK-OV-3 ovarian", "value": "> 100", "unit": "µM"}, {"measurement": "TGI", "setting": "MOLT-4 leukemia", "value": "> 100", "unit": "µM"}]}]}
